Data published in ChEMBL document CHEMBL1154345, “Discovery of tricyclic 5,6-dihydro-1H-pyridin-2-ones as novel, potent, and orally bioavailable inhibitors of HCV NS5B polymerase” (Bioorg Med Chem Lett, 2009).

How the values were obtained:
[1] = tested on: Hepatitis C virus; test: microbe, parasite or virus in culture; assay type: functional, organism-based, Hepacivirus hominis, genotype 1b, Huh-luc/neo-ET; details: Hepatitis C virus, genotype 1b, Huh-luc/neo-ET, 72 h
Description: Antiviral activity against HCV-1b infected human Huh-luc/neo-ET replicon cells after 72 hrs by luciferase based replicon assay

[2] = in vitro; details: human, t1/2
[3] = in vitro; details: human
Description: Metabolic stability in human liver microsomes assessed as compound remaining after 60 mins at 1 uM

[4] = tested on: Hepatitis C virus; test: microbe, parasite or virus in culture; assay type: functional, organism-based, Hepacivirus hominis, subtype 1a, Huh-lunet; details: Hepatitis C virus, subtype 1a, Huh-lunet, 96 h
Description: Antiviral activity against HCV-1a infected in human Huh-lunet cells after 4 days by luciferase based replicon assay

EC50 [1]	half-life at 1 µM ([2]; liver microsomes)	SMILES	other results
240 nM		Cc1ccc(CN2C(=O)C(C3=NS(=O)(=O)c4cc(NS(C)(=O)=O)ccc4N3)=C(O)[C@@H]3C4CCC(CC4)[C@@H]32)cc1F	
220 nM		CS(=O)(=O)Nc1ccc2c(c1)S(=O)(=O)N=C(C1=C(O)[C@@H]3C4CCC(CC4)[C@@H]3N(Cc3cc(F)ccc3F)C1=O)N2	
82 nM	> 60 min	CS(=O)(=O)Nc1ccc2c(c1)S(=O)(=O)N=C(C1=C(O)[C@@H]3C4CCC(CC4)[C@@H]3N(Cc3cccc(F)c3F)C1=O)N2	remaining at 1 h, 1 µM ([3]; liver microsomes): 75%
390 nM		CS(=O)(=O)Nc1ccc2c(c1)S(=O)(=O)N=C(C1=C(O)[C@@H]3C4CCC(CC4)[C@@H]3N(Cc3cccc(C(F)(F)F)c3)C1=O)N2	
80 nM	> 60 min	CS(=O)(=O)Nc1ccc2c(c1)S(=O)(=O)N=C(C1=C(O)[C@@H]3C4CCC(CC4)[C@@H]3N(Cc3cc(Cl)ccc3F)C1=O)N2	remaining at 1 h, 1 µM ([3]; liver microsomes): 100%
26 nM	> 60 min	CS(=O)(=O)Nc1ccc2c(c1)S(=O)(=O)N=C(C1=C(O)[C@@H]3C4CCC(CC4)[C@@H]3N(Cc3ccccc3F)C1=O)N2	remaining at 1 h, 1 µM ([3]; liver microsomes): 81%
1100 nM		CS(=O)(=O)Nc1ccc2c(c1)S(=O)(=O)N=C(C1=C(O)[C@@H]3C4CCC(CC4)[C@@H]3N(Cc3ccc(C(F)(F)F)cc3)C1=O)N2	
63 nM	15 min	CS(=O)(=O)Nc1ccc2c(c1)S(=O)(=O)N=C(C1=C(O)[C@@H]3[C@@H]4CC[C@@H](C4)[C@@H]3N(CC3CCCCC3)C1=O)N2	
46 nM	> 60 min	CS(=O)(=O)Nc1ccc2c(c1)S(=O)(=O)N=C(C1=C(O)[C@@H]3[C@@H]4CC[C@@H](C4)[C@@H]3N(Cc3ccc(F)c(F)c3F)C1=O)N2	remaining at 1 h, 1 µM ([3]; liver microsomes): 87%
59 nM		COc1cc(CN2C(=O)C(C3=NS(=O)(=O)c4cc(NS(C)(=O)=O)ccc4N3)=C(O)[C@@H]3[C@@H]4CC[C@@H](C4)[C@@H]32)ccc1F	half-life at 1 µM ([2]; microsomes): > 60 min; remaining at 1 h, 1 µM ([3]; microsomes): 64%
1700 nM		Cc1ccc(CN2C(=O)C(C3=NS(=O)(=O)c4cc(NS(C)(=O)=O)ccc4N3)=C(O)[C@@H]3[C@@H]4CC[C@@H](C4)[C@@H]32)cc1F	
100 nM		CS(=O)(=O)Nc1ccc2c(c1)S(=O)(=O)N=C(C1=C(O)[C@@H]3[C@@H]4CC[C@@H](C4)[C@@H]3N(Cc3cccc(F)c3F)C1=O)N2	
140 nM		CS(=O)(=O)Nc1ccc2c(c1)S(=O)(=O)N=C(C1=C(O)[C@@H]3[C@@H]4CC[C@@H](C4)[C@@H]3N(Cc3ccc(F)cc3Cl)C1=O)N2	
73 nM		CS(=O)(=O)Nc1ccc2c(c1)S(=O)(=O)N=C(C1=C(O)[C@@H]3[C@@H]4CC[C@@H](C4)[C@@H]3N(Cc3ccc(Cl)cc3)C1=O)N2	half-life at 1 µM ([2]; microsomes): > 60 min; remaining at 1 h, 1 µM ([3]; microsomes): 100%
55 nM		CS(=O)(=O)Nc1ccc2c(c1)S(=O)(=O)N=C(C1=C(O)[C@@H]3[C@@H]4CC[C@@H](C4)[C@@H]3N(Cc3ccc(F)cc3F)C1=O)N2	half-life at 1 µM ([2]; microsomes): > 60 min; remaining at 1 h, 1 µM ([3]; microsomes): 100%
300 nM		CS(=O)(=O)Nc1ccc2c(c1)S(=O)(=O)N=C(C1=C(O)[C@@H]3[C@@H]4CC[C@@H](C4)[C@@H]3N(Cc3cc(Cl)ccc3F)C1=O)N2	
260 nM		CS(=O)(=O)Nc1ccc2c(c1)S(=O)(=O)N=C(C1=C(O)[C@@H]3[C@@H]4CC[C@@H](C4)[C@@H]3N(Cc3cc(F)ccc3F)C1=O)N2	
940 nM		CS(=O)(=O)Nc1ccc2c(c1)S(=O)(=O)N=C(C1=C(O)[C@@H]3[C@@H]4CC[C@@H](C4)[C@@H]3N(Cc3cccc(C(F)(F)F)c3)C1=O)N2	
62 nM	> 60 min	COc1cccc(CN2C(=O)C(C3=NS(=O)(=O)c4cc(NS(C)(=O)=O)ccc4N3)=C(O)[C@@H]3[C@@H]4CC[C@@H](C4)[C@@H]32)c1	remaining at 1 h, 1 µM ([3]; liver microsomes): 83%
> 3300 nM		CS(=O)(=O)Nc1ccc2c(c1)S(=O)(=O)N=C(C1=C(O)[C@@H]3[C@@H]4CC[C@@H](C4)[C@@H]3N(Cc3ccc(C(F)(F)F)cc3)C1=O)N2	
63 nM	> 60 min	CS(=O)(=O)Nc1ccc2c(c1)S(=O)(=O)N=C(C1=C(O)[C@@H]3[C@@H]4CC[C@@H](C4)[C@@H]3N(Cc3ccccc3F)C1=O)N2	remaining at 1 h, 1 µM ([3]; liver microsomes): 83%
130 nM		CS(=O)(=O)Nc1ccc2c(c1)S(=O)(=O)N=C(C1=C(O)[C@@H]3[C@@H]4CC[C@@H](C4)[C@@H]3N(Cc3ccccc3Cl)C1=O)N2	
22 nM	44 min	CS(=O)(=O)Nc1ccc2c(c1)S(=O)(=O)N=C(C1=C(O)[C@@H]3[C@H]4CC[C@H](C4)[C@@H]3N(CC3CCCCC3)C1=O)N2	
770 nM	> 60 min	Cc1ccc(CN2C(=O)C(C3=NS(=O)(=O)c4cc(NS(C)(=O)=O)ccc4N3)=C(O)[C@@H]3[C@H]4CC[C@H](C4)[C@@H]32)cc1F	remaining at 1 h, 1 µM ([3]; liver microsomes): 78%

EC50 [1]	half-life at 1 µM ([2]; liver microsomes)	SMILES	other results
130 nM		CS(=O)(=O)Nc1ccc2c(c1)S(=O)(=O)N=C(C1=C(O)[C@@H]3[C@H]4CC[C@H](C4)[C@@H]3N(Cc3cccc(F)c3F)C1=O)N2	
70 nM	> 60 min	COc1cccc(CN2C(=O)C(C3=NS(=O)(=O)c4cc(NS(C)(=O)=O)ccc4N3)=C(O)[C@@H]3[C@H]4CC[C@H](C4)[C@@H]32)c1	remaining at 1 h, 1 µM ([3]; liver microsomes): 61%
250 nM		CS(=O)(=O)Nc1ccc2c(c1)S(=O)(=O)N=C(C1=C(O)[C@@H]3[C@H]4CC[C@H](C4)[C@@H]3N(Cc3cc(Cl)ccc3F)C1=O)N2	
260 nM		CS(=O)(=O)Nc1ccc2c(c1)S(=O)(=O)N=C(C1=C(O)[C@@H]3[C@H]4CC[C@H](C4)[C@@H]3N(Cc3cc(F)ccc3F)C1=O)N2	
90 nM	> 60 min	CS(=O)(=O)Nc1ccc2c(c1)S(=O)(=O)N=C(C1=C(O)[C@@H]3[C@H]4CC[C@H](C4)[C@@H]3N(Cc3ccccc3Cl)C1=O)N2	remaining at 1 h, 1 µM ([3]; liver microsomes): 100%
820 nM		CS(=O)(=O)Nc1ccc2c(c1)S(=O)(=O)N=C(C1=C(O)[C@@H]3[C@H]4CC[C@H](C4)[C@@H]3N(Cc3cccc(C(F)(F)F)c3)C1=O)N2	
> 3300 nM		CS(=O)(=O)Nc1ccc2c(c1)S(=O)(=O)N=C(C1=C(O)[C@@H]3[C@H]4CC[C@H](C4)[C@@H]3N(Cc3ccc(C(F)(F)F)cc3)C1=O)N2	
70 nM	> 60 min	CS(=O)(=O)Nc1ccc2c(c1)S(=O)(=O)N=C(C1=C(O)[C@@H]3[C@H]4CC[C@H](C4)[C@@H]3N(Cc3ccccc3F)C1=O)N2	remaining at 1 h, 1 µM ([3]; liver microsomes): 89%
29 nM	> 60 min	CS(=O)(=O)Nc1ccc2c(c1)S(=O)(=O)N=C(C1=C(O)[C@@H]3[C@H]4CC[C@H](C4)[C@@H]3N(Cc3ccccc3)C1=O)N2	remaining at 1 h, 1 µM ([3]; liver microsomes): 80%
250 nM		CS(=O)(=O)Nc1ccc2c(c1)S(=O)(=O)N=C(C1=C(O)[C@@H]3[C@H]4CC[C@H](C4)[C@@H]3N(Cc3ccco3)C1=O)N2	
29 nM	59 min	CC(C)CCN1C(=O)C(C2=NS(=O)(=O)c3cc(NS(C)(=O)=O)ccc3N2)=C(O)[C@@H]2C3CCC(CC3)[C@@H]21	
80 nM	> 60 min	CS(=O)(=O)Nc1ccc2c(c1)S(=O)(=O)N=C(C1=C(O)[C@@H]3C4CCC(CC4)[C@@H]3N(Cc3ccco3)C1=O)N2	remaining at 1 h, 1 µM ([3]; liver microsomes): 96%
89 nM	18 min	CC(C)CCN1C(=O)C(C2=NS(=O)(=O)c3cc(NS(C)(=O)=O)ccc3N2)=C(O)[C@@H]2[C@@H]3CC[C@@H](C3)[C@@H]21	
3300 nM		CS(=O)(=O)Nc1ccc2c(c1)S(=O)(=O)N=C(C1=C(O)[C@@H]3C4CCC(CC4)[C@@H]3N(Cc3nccs3)C1=O)N2	
> 1000 nM		CS(=O)(=O)Nc1ccc2c(c1)S(=O)(=O)N=C(C1=C(O)[C@@H]3[C@H]4CC[C@H](C4)[C@@H]3N(Cc3nccs3)C1=O)N2	
12 nM	37 min	CC(C)CCN1C(=O)C(C2=NS(=O)(=O)c3cc(NS(C)(=O)=O)ccc3N2)=C(O)[C@@H]2[C@H]3CC[C@H](C3)[C@@H]21	EC50 [4]: 72 nM
> 1000 nM		CS(=O)(=O)Nc1ccc2c(c1)S(=O)(=O)N=C(C1=C(O)[C@@H]3[C@@H]4CC[C@@H](C4)[C@@H]3N(Cc3nccs3)C1=O)N2	
72 nM		CS(=O)(=O)Nc1ccc2c(c1)S(=O)(=O)N=C(C1=C(O)[C@@H]3[C@H]4CC[C@H](C4)[C@@H]3N(CC3CCCC3)C1=O)N2	half-life at 1 µM ([2]; microsomes): 46 min
160 nM		CS(=O)(=O)Nc1ccc2c(c1)S(=O)(=O)N=C(C1=C(O)[C@@H]3[C@@H]4CC[C@@H](C4)[C@@H]3N(CC3CCCC3)C1=O)N2	half-life at 1 µM ([2]; microsomes): 17 min
24 nM	47 min	CS(=O)(=O)Nc1ccc2c(c1)S(=O)(=O)N=C(C1=C(O)[C@@H]3C4CCC(CC4)[C@@H]3N(CC3CCCC3)C1=O)N2	
20 nM		CC(C)(C)CCN1C(=O)C(C2=NS(=O)(=O)c3cc(NS(C)(=O)=O)ccc3N2)=C(O)[C@@H]2[C@H]3CC[C@H](C3)[C@@H]21	EC50 [4]: 180 nM; half-life at 1 µM ([2]; microsomes): 4 min
50 nM		CC(C)(C)CCN1C(=O)C(C2=NS(=O)(=O)c3cc(NS(C)(=O)=O)ccc3N2)=C(O)[C@@H]2[C@@H]3CC[C@@H](C3)[C@@H]21	half-life at 1 µM ([2]; microsomes): 3 min
170 nM		CS(=O)(=O)Nc1ccc2c(c1)S(=O)(=O)N=C(C1=C(O)[C@@H]3[C@@H]4CC[C@@H](C4)[C@@H]3N(Cc3ccco3)C1=O)N2	
